According to paper PMC6060375 (Drug Delivery, 2018):

Key:
[1] = Tissue distribution of TA in tumor-bearing nude mice (GC-MS/MS); assay type: in vivo; details: BALB/c nude, mouse, spleen, intravenous; TA measured after treatment of nude mice with mPEG2K-SA-TA; dose group not stated; read-out: tissue exposure to TA in spleen
Description: In order to better support the anti-tumor evaluation and following histological assay, the harvested tissues were prepared as abovementioned method to monitor the amount of TA by GC–MS/MS in these tissues, including heart, liver, spleen, lung, kidney and tumor.

[2] = Pharmacokinetics of TA in rats after i.v. administration; assay type: in vivo, Sprague–Dawley (SD) rats; details: both sexes, Sprague-Dawley, rat, plasma, iv, total TA, 3 mg/kg TA equivalent
Description: Sprague–Dawley (SD) rats (male and female, 300 ± 30 g) were purchased from SIPPR/BK Experimental Animal Co., Ltd (Shanghai, China). All animals were kept in a humanized environment, with the temperature maintained at 20 ± 2 °C and relative humidity at 50 ± 10%. All the animal procedures were performed following the approved protocol. SD rats were randomly divided into different groups (n = 4 in each group). Rats from different groups were intravenously (i.v.) administrated with TA solution, PEGylated TA solution mPEG2K-SA-TA, respectively. At the designated time points, the blood samples were collected into polyethylene tubes containing EDTA at 0, 0.083, 0.167, 0.5, 0.75, 1, 2, 4, 8, 12, 24, 36 and 48 h and then centrifuged at 12,000 rpm for 5 min to obtain plasma. The plasma samples were stored at −80 °C till analysis. The harvested plasma samples were prepared by sample direct saponification or extraction and analyzed by GC–MS/MS (Wang et al., [2015]). […]
The pharmacokinetic parameters were calculated by a noncompartmental analysis using WinNonlin (Version 6.4; Pharsight, Mountain View, CA, USA). […] The systemic exposure to TA (area under the plasma concentration versus time profile from the dosing time to the terminal sampling time, AUC0−t) was calculated by trapezoidal rule. […]

concentration at 21 days [1]: 4170 ng/g | half-life ([2]; read-out: elimination half-life (t1/2) (converted)): 154 min | MRT ([2]; read-out: mean residence time): 2.95 h
Compound: CCCCCCCCCCCCCCCCCCCCCCCCCCCCCCO [TA, Triacontanol]
